Converted amounts (≈) assume the structure as drawn.
Each compound was assayed on Escherichia coli ATCC 25922 (assay: Minimal Inhibitory Concentration (MIC) determination, broth microdilution (CLSI M07-A10)). Conditions: Escherichia coli, ATCC25922, strain Escherichia coli ATCC 25922, 18-24 hours at 35±2° C., lowest concentration for complete growth inhibition (no visible growth), read-out: Escherichia coli growth inhibition MIC.
Format: cell-based
In short: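 MIC read visually as the lowest concentration with complete growth inhibition after 18-24 h at 35±2° C, ambient air. Method follows CLSI M07-A10 broth microdilution, two-fold compound series, inoculum standardized to 0.5 McFarland then diluted 1:200.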
`CN[C@H](C)c1nc2c(F)c3c(c(F)c2[nH]1)CC(CN1CCC2(CC1)CN(c1cnc4c(n1)NC(=O)CO4)C(=O)O2)C3.O=C(O)C(F)(F)F` [Example 17, 6-[8-[[4,8-difluoro-2-[(1R)-1-(methylamino)ethyl]-3,5,6,7-tetrahydrocyclopenta[f]benzimidazol-6-yl]methyl]-2-oxo-1-oxa-3,8-diazaspiro[4.5]decan-3-yl]-4H-pyrazino[2,3-b][1,4]oxazin-3-one; 2,2,2-trifluoroacetic acid] showed an MIC of 0.125 µg/mL. `O=C(O)C(F)(F)F.O=C1COc2ncc(N3CC4(CCN(CC5Cc6c(c(F)c7[nH]c([C@@H]8COCCN8)nc7c6F)C5)CC4)OC3=O)nc2N1` [Example 18, 6-[8-[[4,8-difluoro-2-[(3R)-morpholin-3-yl]-3,5,6,7-tetrahydrocyclopenta[f]benzimidazol-6-yl]methyl]-2-oxo-1-oxa-3,8-diazaspiro[4.5]decan-3-yl]-4H-pyrazino[2,3-b][1,4]oxazin-3-one; 2,2,2-trifluoroacetic acid] showed an MIC of 0.5 µg/mL. With `CNCc1nc2c(F)c3c(c(F)c2[nH]1)CC(CNC1CC2(C1)CN(c1cnc4c(n1)NC(=O)CO4)C(=O)O2)C3` (stereo not drawn) [Example 19, 6-[2-[[4,8-difluoro-2-(methylaminomethyl)-3,5,6,7-tetrahydrocyclopenta[f]benzimidazol-6-yl]methylamino]-6-oxo-5-oxa-7-azaspiro[3.4]octan-7-yl]-4H-pyrazino[2,3-b][1,4]oxazin-3-one] the MIC was 0.5 µg/mL (≈ 0.925 µM). `CNCCc1nc2c(F)c3c(c(F)c2n1C)CC(CN1CCC2(CC1)CN(c1cnc4c(n1)NC(=O)CO4)C(=O)O2)C3.O=C(O)C(F)(F)F` (stereo not drawn) [Example 20, 6-[8-[[4,8-difluoro-1-methyl-2-[2-(methylamino)ethyl]-6,7-dihydro-5H-cyclopenta[f]benzimidazol-6-yl]methyl]-2-oxo-1-oxa-3,8-diazaspiro[4.5]decan-3-yl]-4H-pyrazino[2,3-b][1,4]oxain-3-one; 2,2,2-trifluoroacetic acid] showed an MIC of 0.25 µg/mL. Work on `O=C(O)C(F)(F)F.O=C1COc2ncc(N3CC4(CCN(CC5Cc6c(c(F)c7[nH]c([C@@H]8CCC(=O)N8)nc7c6F)C5)CC4)OC3=O)nc2N1` [Example 21, 6-[8-[[4,8-difluoro-2-[(2S)-5-oxopyrrolidin-2-yl]-3,5,6,7-tetrahydrocyclopenta[f]benzimidazol-6-yl]methyl]-2-oxo-1-oxa-3,8-diazaspiro[4.5]decan-3-yl]-4H-pyrazino[2,3-b][1,4]oxazin-3-one; 2,2,2-trifluoroacetic acid] yielded an MIC of 1 µg/mL. `CNCc1nc2cc3c(c(F)c2o1)CC(CN1CCC2(CC1)CN(c1cnc4c(n1)NC(=O)CO4)C(=O)O2)C3.O=C(O)C(F)(F)F` (stereo not drawn) [Example 22, 6-[8-[[8-fluoro-2-(methylaminomethyl)-6,7-dihydro-5H-cyclopenta[f][1,3]benzoxazol-6-yl]methyl]-2-oxo-1-oxa-3,8-diazaspiro[4.5]decan-3-yl]-4H-pyrazino[2,3-b][1,4]oxazin-3-one; 2,2,2-trifluoroacetic acid] was tested, and the MIC was 0.25 µg/mL. Compound `O=C1COc2ncc(N3CC4(CCN(CC5Cc6c(c(F)c7c(nc8n7CCNC8)c6F)C5)CC4)OC3=O)nc2N1` (stereo not drawn) [Example 23, 6-[8-[(10,16-difluoro-2,5,8-triazatetracyclo[7.7.0.02,7.011,15]hexadeca-1(9),7,10,15-tetraen-13-yl)methyl]-2-oxo-1-oxa-3,8-diazaspiro[4.5]decan-3-yl]-4H-pyrazino[2,3-b][1,4]oxazin-3-one] has an MIC of 0.5 µg/mL (≈ 0.883 µM). `O=C1COc2ncc(N3CC4(CCN(CC5Cc6c(c(F)c7[nH]c([C@H]8CCCN8)nc7c6F)C5)CC4)OC3=O)nc2N1` [Example 24, 6-[8-[[4,8-difluoro-2-[(2R)-pyrrolidin-2-yl]-3,5,6,7-tetrahydrocyclopenta[f]benzimidazol-6-yl]methyl]-2-oxo-1-oxa-3,8-diazaspiro[4.5]decan-3-yl]-4H-pyrazino[2,3-b][1,4]oxazin-3-one] gave an MIC of 0.125 µg/mL (≈ 0.215 µM). For `C[C@@H](N)c1nc2c(F)c3c(c(F)c2[nH]1)CC(CN1CCC2(CC1)CN(c1cnc4c(n1)NC(=O)CO4)C(=O)O2)C3.O=C(O)C(F)(F)F` [Example 25, 6-[8-[[2-[(1R)-1-aminoethyl]-4,8-difluoro-3,5,6,7-tetrahydrocyclopenta[f]benzimidazol-6-yl]methyl]-2-oxo-1-oxa-3,8-diazaspiro[4.5]decan-3-yl]-4H-pyrazino[2,3-b][1,4]oxazin-3-one; 2,2,2-trifluoroacetic acid], the MIC was at most 0.06 µg/mL. Compound `CN[C@H](C)c1nc2c(F)c3c(c(F)c2[nH]1)CC(CNC1CC2(C1)CN(c1cnc4c(n1)NC(=O)CO4)C(=O)O2)C3` (stereo partly drawn) [Example 26, 6-[2-[[4,8-difluoro-2-[(1R)-1-(methylamino)ethyl]-3,5,6,7-tetrahydrocyclopenta[f]benzimidazol-6-yl]methylamino]-6-oxo-5-oxa-7-azaspiro[3.4]octan-7-yl]-4H-pyrazino[2,3-b][1,4]oxazin-3-one] has an MIC of 0.5 µg/mL (≈ 0.902 µM). Work on `CN[C@H]1CN[C@H](c2nc3c(F)c4c(c(F)c3[nH]2)CC(CN2CCC3(CC2)CN(c2cnc5c(n2)NC(=O)CO5)C(=O)O3)C4)C1` [Example 27, 6-[8-[[4,8-difluoro-2-[(2S,4R)-4-(methylamino)pyrrolidin-2-yl]-3,5,6,7-tetrahydrocyclopenta[f]benzimidazol-6-yl]methyl]-2-oxo-1-oxa-3,8-diazaspiro[4.5]decan-3-yl]-4H-pyrazino[2,3-b][1,4]oxazin-3-one] yielded an MIC of 0.25 µg/mL (≈ 0.41 µM). `O=C(O)C(F)(F)F.O=C1COc2ncc(N3CC4(CCN(CC5Cc6c(c(F)c7[nH]c([C@@H]8CC(O)CCN8)nc7c6F)C5)CC4)OC3=O)nc2N1` (stereo partly drawn) [Example 28, 6-[8-[[4,8-difluoro-2-[(2S)-4-hydroxy-2-piperidyl]-3,5,6,7-tetrahydrocyclopenta[f]benzimidazol-6-yl]methyl]-2-oxo-1-oxa-3,8diazaspiro[4.5]decan-3-yl]-4H-pyrazino[2,3-b][1,4]oxazin-3-one; 2,2,2-trifluoroacetic acid] gave an MIC of 0.25 µg/mL. In the case of `CN(C)Cc1nc2c(F)c3c(c(F)c2[nH]1)CC(CNC1CC2(C1)CN(c1cnc4c(n1)NC(=O)CO4)C(=O)O2)C3` (stereo not drawn) [Example 29, 6-[2-[[2-[(dimethylamino)methyl]-4,8-difluoro-3,5,6,7-tetrahydrocyclopenta[f]benzimidazol-6-yl]methylamino]-6-oxo-5-oxa-7-azaspiro[3.4]octan-7-yl]-4H-pyrazino[2,3-b][1,4]oxazin-3-one], the MIC is reported as 0.5 µg/mL (≈ 0.902 µM). With `CC(C)(N)c1nc2c(F)c3c(c(F)c2[nH]1)CC(CN1CCC2(CC1)CN(c1cnc4c(n1)NC(=O)CO4)C(=O)O2)C3` [Example 30, 6-[8-[[2-(1-amino-1-methyl-ethyl)-4,8-difluoro-3,5,6,7-tetrahydrocyclopenta[f]benzimidazol-6-yl]methyl]-2-oxo-1-oxa-3,8-diazaspiro[4.5]decan-3-yl]-4H-pyrazino[2,3-b][1,4]oxazin-3-one] the MIC was 0.125 µg/mL (≈ 0.22 µM). Work on `N[C@H]1COC[C@@H]1c1nc2c(F)c3c(c(F)c2[nH]1)CC(CN1CCC2(CC1)CN(c1cnc4c(n1)NC(=O)CO4)C(=O)O2)C3` [Example 31, 6-[8-[[4,8-difluoro-2-[(3S,4R)-4-aminotetrahydrofuran-3-yl]-3,5,6,7-tetrahydrocyclopenta[f]benzimidazol-6-yl]methyl]-2-oxo-1-oxa-3,8-diazaspiro[4.5]decan-3-yl]-4H-pyrazino[2,3-b][1,4]oxazin-3-one] yielded an MIC of 0.25 µg/mL (≈ 0.419 µM). `Nc1nc2c(F)c3c(c(F)c2[nH]1)CC(CN1CCC2(CC1)CN(c1cnc4c(n1)NC(=O)CO4)C(=O)O2)C3` [Example 32, 6-[8-[(2-amino-4,8-difluoro-3,5,6,7-tetrahydrocyclopenta[f]benzimidazol-6-yl)methyl]-2-oxo-1-oxa-3,8-diazaspiro[4.5]decan-3-yl]-4H-pyrazino[2,3-b][1,4]oxazin-3-one] gave an MIC of 0.25 µg/mL (≈ 0.475 µM). Work on `CNCc1nc2c(F)c3c(c(F)c2n1C)CC(CN1CCC2(CC1)CN(c1cnc4c(n1)NC(=O)CO4)C(=O)O2)C3` (stereo not drawn) [Example 33, 6-[8-[[4,8-difluoro-1-methyl-2-(methylaminomethyl)-6,7-dihydro-5H-cyclopenta[f]benzimidazol-6-yl]methyl]-2-oxo-1-oxa-3,8-diazaspiro[4.5]decan-3-yl]-4H-pyrazino[2,3-b][1,4]oxazin-3-one] yielded an MIC of 0.25 µg/mL (≈ 0.44 µM). `O=C1COc2ncc(N3CC4(CCN(CC5Cc6c(c(F)c7[nH]c(C89CC(CN8)C9)nc7c6F)C5)CC4)OC3=O)nc2N1` [Example 34, 6-[8-[[2-(2-azabicyclo[2.1.1]hexan-1-yl)-4,8-difluoro-3,5,6,7-tetrahydrocyclopenta[f]benzimidazol-6-yl]methyl]-2-oxo-1-oxa-3,8-diazaspiro[4.5]decan-3-yl]-4H-pyrazino[2,3-b][1,4]oxazin-3-one] was tested, and the MIC was 0.25 µg/mL (≈ 0.422 µM). With `CNCC(=O)Nc1nc2c(F)c3c(c(F)c2[nH]1)CC(CN1CCC2(CC1)CN(c1cnc4c(n1)NC(=O)CO4)C(=O)O2)C3` [Example 35, N-[4,8-difluoro-6-[[2-oxo-3-(3-oxo-4H-pyrazino[2,3-b][1,4]oxazin-6-yl)-1-oxa-3,8-diazaspiro[4.5]decan-8-yl]methyl]-3,5,6,7-tetrahydrocyclopenta[f]benzimidazol-2-yl]-2-(methylamino)acetamide] the MIC was 0.125 µg/mL (≈ 0.209 µM). Work on `C[C@H](O)[C@@H](N)c1nc2c(F)c3c(c(F)c2[nH]1)CC(CN1CCC2(CC1)CN(c1cnc4c(n1)NC(=O)CO4)C(=O)O2)C3` [Example 36, 6-[8-[[2-[(1S,2S)-1-amino-2-hydroxy-propyl]-4,8-difluoro-3,5,6,7-tetrahydrocyclopenta[f]benzimidazol-6-yl]methyl]-2-oxo-1-oxa-3,8-diazaspiro[4.5]decan-3-yl]-4H-pyrazino[2,3-b][1,4]oxazin-3-one] yielded an MIC of 0.5 µg/mL (≈ 0.855 µM). `CO[C@@H]1CN[C@@H](c2nc3c(F)c4c(c(F)c3[nH]2)CC(CN2CCC3(CC2)CN(c2cnc5c(n2)NC(=O)CO5)C(=O)O3)C4)C1` [Example 37, 6-[8-[[4,8-difluoro-2-[(2R,4S)-4-methoxypyrrolidin-2-yl]-3,5,6,7-tetrahydrocyclopenta[f]benzimidazol-6-yl]methyl]-2-oxo-1-oxa-3,8-diazaspiro[4.5]decan-3-yl]-4H-pyrazino[2,3-b][1,4]oxazin-3-one] was tested, and the MIC was 0.25 µg/mL (≈ 0.409 µM).
